# Measured values: patent publication US11841369B2, “Method for improving quality of therapeutic cell through real-time glutathione measurement” (CELL2IN, INC., priority 2017, dated 2023)
# Experiments:
# hES-MSCs [1] = assay: PDGF-AA-induced cell migration of unsorted hES-MSCs; assay type: cell-based, human; conditions: hES-MSCs not sorted by FreSH-Tracer
# Description: Main factors for determining the therapeutic efficacy of hBM-MSCs, namely a colony forming unit-fibroblast (CFU-F) and a graft survival rate, were evaluated in cell culture models.
# In order to test whether direct control of a GSH level in stem cells leads to changes in cell functions, hES-MSCs sorted by FreSH-Tracer were treated with buthionine sulfoximine (BSO; glutathione synthesis inhibitor) and glutathione ethyl ester (GSH-EE). When GSH was decreased in cells by treating GSH^High cells with BSO (80 μM, 24 h), it was confirmed that CFU-F increased, and on the other hand, when GSH was increased by treating GSH^Low cells with GSH-EE (1 mM, 2 h), it was confirmed that CFU-F decreased (FIG. 13A). In addition, it was confirmed that, when hES-MSCs which were not sorted by FreSH-Tracer were treated with BSO or GSH-EE, PDGF-AA-induced cell migration capacity was decreased or increased, respectively (FIG. 13B).
# hES-MSCs [2] = assay: CFU-F of FreSH-Tracer-sorted hES-MSCs; assay type: cell-based, human
# Description: Twelve hours after hES-MSCs were seeded in […] tissue culture media at a density of 3×10^6 cells/mL, the cells were washed two times with 30 mL of PBS, and labeled with an EGM-2 MV culture solution containing 2 μM FreSH for 2 hours. After the two hours, the cells were washed with 2 μM FreSH-containing PBS twice and treated with a TrypsinLE (Invitrogen) solution to detach the cells, and then trypsin was inactivated with a fresh EGM-2 MV medium containing 2 μM FreSH. Afterward, the cells were centrifuged at 4° C. and 2000 rpm for 20 minutes, and resuspended in a fresh EGM-2 MV medium containing 2 μM FreSH to have a density of 5×10^7 cells/mL. The suspension was diluted 1/5 with PBS containing 2 μM FreSH immediately before loading for FACS (diluted by approximately 1 mL at a time to maintain a temperature of 4° C.).
# Afterward, under the following conditions, FACS Instruction (BD ARIAIII, laser at wavelengths of 405 (for measuring F510) and 488 (for measuring F580), nozzle size: 100 μm, 2,000-3,000 events/sec), FACS analysis was performed by gating the cells corresponding to the upper 3.9-35% and the lower 3.9-35% of total cells according to the F510/F580 ratio. […]
# Main factors for determining the therapeutic efficacy of hBM-MSCs, namely a colony forming unit-fibroblast (CFU-F) and a graft survival rate, were evaluated in cell culture models. […]
# T cells = assay: Anti-inflammatory effect of treated hUC-MSCs: T cell proliferation, T cell differentiation, Treg cell differentiation; assay type: cell-based; conditions: for T cell differentiation capacity / T cell proliferation ability / Treg cell differentiation: hUC-MSCs treated with 1 μM ferrostatin-1 24 h, 0.2 mM GGC 2 h or 2 mM GSH-EE 2 h
# Description: The inventors observed an effect of the material on stem cells by treating each stem cells with a material for enhancing a glutathione evaluation parameter. When hUC-MSCs were subcultured in a L-AA2G-containing medium, CFU-F, migration capacity, and an anti-inflammatory effect were observed. A CFU-F assay (n=3) was performed by treating hUC-MSCs with 125 or 250 μg/mL of AA2G for three days. As shown in FIGS. 16A and 16B, it was confirmed that, when AA2G was treated, CFU-F increased. In addition, as hUC-MSCs were treated with 125 or 250 μg/mL of AA2G for three days, PDGF-AA-induced migration capacity (n=3) was analyzed. As shown in FIGS. 17A and 17B, it was confirmed that the migration capacity was increased by AA2G treatment. In addition, the reduction in T cell proliferation, a reduction in T cell differentiation, and the promotion of Treg cell differentiation were observed by treating hUC-MSCs with 125 or 250 μg/mL of AA2G for three days.
# In addition, hUC-MSCs were cultured with ferrostatin-1 (0.2, 1, 2 and 4 μM) and liproxstatin-1 (0.1, 0.5, 1 and 2 μM), which control a glutathione level in cells by inhibiting lipid oxidation. […] Meanwhile, the hUC-MSCs were treated with 1 μM ferrostatin-1 for 24 hours, 0.2 mM GGC for 2 hours, and 2 mM GSH-EE for 2 hours. As a result, the reduction in T cell proliferation ability and the reduction in T cell differentiation capacity were observed, and promotion of Treg cell differentiation was observed.
# hUC-MSCs [3] = assay: CFU-F assay of hUC-MSCs; assay type: cell-based, human
# Description: (§1) The inventors observed an effect of the material on stem cells by treating each stem cells with a material for enhancing a glutathione evaluation parameter. When hUC-MSCs were subcultured in a L-AA2G-containing medium, CFU-F, migration capacity, and an anti-inflammatory effect were observed. A CFU-F assay (n=3) was performed by treating hUC-MSCs with 125 or 250 μg/mL of AA2G for three days. As shown in FIGS. 16A and 16B, it was confirmed that, when AA2G was treated, CFU-F increased. In addition, as hUC-MSCs were treated with 125 or 250 μg/mL of AA2G for three days, PDGF-AA-induced migration capacity (n=3) was analyzed. As shown in FIGS. 17A and 17B, it was confirmed that the migration capacity was increased by AA2G treatment. In addition, the reduction in T cell proliferation, a reduction in T cell differentiation, and the promotion of Treg cell differentiation were observed by treating hUC-MSCs with 125 or 250 μg/mL of AA2G for three days. […] Meanwhile, hUC-MSCs were cultured with a glutathione precursor such as γ-glutamyl cysteine (GGC, 0.1, 0.25, and 0.5 mM). A CFU-F assay (n=3) was performed by treating hUC-MSCs with each concentration of GGC for 2 hours. […] In addition, SDF1α and PDGF-AA-induced migration capacities (n=3) were analyzed for hUC-MSCs without treatment with GGC, and SDF1α- and PDGF-AA-induced migration abilities (n=3) were analyzed by treating hUC-MSCs with the increasing concentrations of GGC. STI571 was used as a PDGFR kinase inhibitor. As shown in FIGS. 20A to 20C, it was confirmed that, according to an increase in GGC treatment concentration, SDF1α- and PDGF-AA-induced migration capacities were enhanced. A CFU-F assay (n=3) was performed by treating hUC-MSCs with 0.2, 1, 2, and 4 μM ferrostatin-1 and 0.1, 0.5, 1, and 2 μM liproxstatin-1 for 24 hours.
# hUC-MSCs [4] = assay: SDF1α- and PDGF-AA-induced migration capacity of hUC-MSCs; assay type: cell-based, human; conditions: increasing GGC concentration (0.1, 0.25 mM)
# Description: as §1, with “enhanced.” for “enhanced. A CFU-F assay (n=3) was performed by treating hUC-MSCs with 0.2, 1, 2, and 4 μM ferrostatin-1 and 0.1, 0.5, 1, and 2 μM liproxstatin-1 for 24 hours.”
# hUC-MSCs [5] = assay: Oxidative stress resistance capacity (ORC) analysis with RSL3; assay type: cell-based, human; conditions: hUC-MSCs, 0, 2.5, 5 or 10 μM liproxstatin-1 with 0, 0.5 or 1 μM RSL3; concentration-dependent
# Description: In addition, GH is calculated as the coefficient of variation or robust coefficient of variation of cellular FR. GRC refers to a value obtained by real-time monitoring of FR after living cells are treated with an oxidizing agent, as calculated by dividing a value obtained by subtracting AUC of a group treated with 0.1-100 mM N-ethylmaleimide (NEM) from FR AUC of an oxidizing agent (diamide, H2O2, etc.)-treated group by a value obtained by subtracting the AUC of NEM-treated group from AUC of the untreated control, and multiplying the resulting value by 100. The FR of the NEM-treated group is a value for increasing the sensitivity of a GRC value by treating it as the blank value of the FR of the cells of interest. […] To remove the MitoFreSH-Tracer from the medium before measurement, the medium was exchanged with fresh 10 mM HEPES-containing HBSS, and a fluorescence image was obtained using a confocal imaging system, Operetta. By comparing GSH levels quantified from control cells not treated with RSL3 or control cells before treated with RSL3, the distribution of GSH expression-changed cells was calculated. Based on the point where the distribution histogram is divided into two peaks, the cells were divided into GSH^High cells (right peak) and GSH^Low cells (left peak), and then a ratio of corresponding cells was expressed as a percentage (%). […]
structure (smiles),measurement,setting,value
"CCCCS(=N)(=O)CCC(N)C(=O)O (centres unmarked) [BSO, buthionine sulfoximine]",PDGF-AA-induced cell migration capacity,hES-MSCs [1],decreased
same,CFU-F,"hES-MSCs [2]; GSH^High hES-MSCs, BSO 80 μM, 24 h",increased
"CCOC(=O)CNC(=O)[C@H](CS)NC(=O)CC[C@H](N)C(=O)O [GSH-EE, glutathione ethyl ester]",PDGF-AA-induced cell migration capacity,hES-MSCs [1],increased
same,T cell differentiation capacity,T cells,reduction
same,T cell proliferation ability,T cells,reduction
same,Treg cell differentiation,T cells,promotion
same,CFU-F,"hES-MSCs [2]; GSH^Low hES-MSCs, GSH-EE 1 mM, 2 h",decreased
"N[C@@H](CCC(=O)N[C@@H](CS)C(=O)O)C(=O)O [GGC, γ-glutamyl cysteine]",CFU-F,"hUC-MSCs [3]; GGC 0.1, 0.25 and 0.5 mM, 2 hours",increased
same,T cell differentiation capacity,T cells,reduction
same,T cell proliferation ability,T cells,reduction
same,Treg cell differentiation,T cells,promotion
same,anti-inflammatory effect,"T cells; hUC-MSCs with GGC treatment (FIGS. 27, 28A to 28C)",no change
same,PDGF-AA-induced migration capacity,hUC-MSCs [4],enhanced
same,SDF1α-induced migration capacity,hUC-MSCs [4],enhanced
Clc1cccc(CN=C2Nc3ccccc3NC23CCNCC3)c1 [liproxstatin-1],CFU-F,"hUC-MSCs [3]; ferrostatin-1 0.2, 1, 2, 4 μM or liproxstatin-1 0.1, 0.5, 1, 2 μM, 24 hours",improved
same,anti-inflammatory effect of the hUC-MSCs,"T cells; ferrostatin-1 or liproxstatin-1 treatment (FIGS. 27, 28A to 28C)",did not alter
same,ratio of the GSH^High cells (ORC),hUC-MSCs [5],increased
